From the supplement of paper PMC10627819 come the findings set out here.

Holding throughout (assay): Bliss interaction score (quartile over a dose matrix) (fitness difference); higher = more antagonism (negative = synergy)
The test system of one assay is B. subtilis 168. In outline:
(§1)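 OD595 was read at entry into stationary phase and expressed relative to the robust mean of the no-drug wells on the same plate, capped at 1. The resulting ratio is the fitness value. The Bliss score, observed fitness minus product-based expected fitness with single-drug fitness inferred from combinations, is summarised by quartiles over technical, biological and donor/recipient replicates.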

In the next assay the test system is S. aureus Newman. In outline: as §1
In a further assay the test system is S. pneumoniae D39V. In outline: as §1
The subject of another assay is S. aureus DSM 20231. In outline:
as §1
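Also: first quartile when negative (synergy) and third quartile when positive (antagonism).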

`O=C(O)[C@H]1/C(=C/CO)O[C@@H]2CC(=O)N21` [Clavulanic] + CN[C@@H]1[C@H](O[C@H]2[C@H](O[C@H]3[C@H](O)[C@@H](O)[C@H](N=C(N)N)[C@@H](O)[C@@H]3N=C(N)N)O[C@@H](C)[C@]2(O)C=O)O[C@@H](CO)[C@H](O)[C@H]1O [Streptomycin]: the Bliss interaction score in the assay on B. subtilis 168 turned out to be 0.0954; in the assay on S. aureus Newman it was 0.218; with S. pneumoniae D39V, 0.0425. For the compound `CN(C)CCCN1c2ccccc2Sc2ccc(Cl)cc21` [Chlorpromazine] + CN[C@H](CC(C)C)C(=O)N[C@H]1C(=O)N[C@@H](CC(N)=O)C(=O)N[C@H]2C(=O)N[C@H]3C(=O)N[C@H](C(=O)N[C@H](C(=O)O)c4cc(O)cc(O)c4-c4cc3ccc4O)[C@H](O[C@H]3C[C@](C)(N)[C@@H](O)[C@H](C)O3)c3ccc(c(Cl)c3)Oc3cc2cc(c3O[C@@H]2O[C@H](CO)[C@@H](O)[C@H](O)[C@H]2O[C@H]2C[C@](C)(NCc3ccc(-c4ccc(Cl)cc4)cc3)[C@@H](O)[C@H](C)O2)Oc2ccc(cc2Cl)[C@H]1O [Oritavancin], in the assay with S. aureus DSM 20231, the Bliss interaction score was -0.202. As to `CN(C)CCCN1c2ccccc2Sc2ccc(Cl)cc21` [Chlorpromazine] + CC(=O)NC[C@H]1CN(c2ccc(N3CCOCC3)c(F)c2)C(=O)O1 [Linezolid], the Bliss interaction score in the assay on S. aureus DSM 20231 was -0.236.

As to `Cc1c(Cl)cccc1Nc1ccccc1C(=O)O` [Tolfenamic] + CN[C@H](CC(C)C)C(=O)N[C@H]1C(=O)N[C@@H](CC(N)=O)C(=O)N[C@H]2C(=O)N[C@H]3C(=O)N[C@H](C(=O)N[C@H](C(=O)O)c4cc(O)cc(O)c4-c4cc3ccc4O)[C@H](O)c3ccc(c(Cl)c3)Oc3cc2cc(c3O[C@@H]2O[C@H](CO)[C@@H](O)[C@H](O)[C@H]2O[C@H]2C[C@](C)(N)[C@H](O)[C@H](C)O2)Oc2ccc(cc2Cl)[C@H]1O [Vancomycin], the Bliss interaction score in the assay on S. aureus DSM 20231 turned out to be 0.124. Turning to `Cc1onc(-c2ccccc2)c1C(=O)N[C@@H]1C(=O)N2[C@@H]1SC(C)(C)[C@@H]2C(=O)O` [Oxacillin] + Cc1c(Cl)cccc1Nc1ccccc1C(=O)O [Tolfenamic], the Bliss interaction score in the assay on S. aureus DSM 20231 stood at 0.138. Consider `CN(N=O)C(=O)N[C@@H](C=O)[C@@H](O)[C@H](O)[C@H](O)CO` [Streptozotocin] + CCCSc1nc(N[C@@H]2C[C@H]2c2ccc(F)c(F)c2)c2nnn([C@@H]3C[C@H](OCCO)[C@@H](O)[C@H]3O)c2n1 [Ticagrelor], for which the Bliss interaction score in the assay on S. aureus DSM 20231 was determined as 0.221.

Turning to `Cc1c(Cl)cccc1Nc1ccccc1C(=O)O` [Tolfenamic] + COc1cc(Cc2cnc(N)nc2N)cc(OC)c1OC [Trimethoprim], the Bliss interaction score in the assay with S. aureus DSM 20231 is -0.185. Take `CNC(C)C1CCC(N)C(OC2C(N)CC(N)C(OC3OCC(C)(O)C(NC)C3O)C2O)O1` (stereo not given) [Gentamicin] + CCCc1nc2c(C)cc(-c3nc4ccccc4n3C)cc2n1Cc1ccc(-c2ccccc2C(=O)O)cc1 [Telmisartan]: in the assay on S. aureus DSM 20231 (main component drawn), the Bliss interaction score was determined as 0.241. As to `CN(C)CCCN1c2ccccc2Sc2ccc(Cl)cc21` [Chlorpromazine] + CCC[C@@H]1C[C@@H](C(=O)N[C@@H]([C@H]2O[C@H](SC)[C@H](O)[C@@H](O)[C@H]2O)[C@@H](C)O)N(C)C1 [Lincomycin], in the assay on S. aureus DSM 20231, the Bliss interaction score was -0.233. Take `CC[C@H]1OC(=O)[C@H](C)C(=O)[C@H](C)[C@@H](O[C@@H]2O[C@H](C)C[C@H](N(C)C)[C@H]2O)[C@](C)(OC)C[C@@H](C)C(=O)[C@H](C)[C@H]2N(CCCCn3cnc(-c4cccnc4)c3)C(=O)O[C@]12C` [Telithromycin] + Cc1ccc(C(C)C)c(O)c1 [Thymol]: in the assay on S. aureus DSM 20231, the Bliss interaction score was -0.222. Regarding `c1ccc2c(CC3=NCCN3)cccc2c1` [Naphazoline] + COc1cc(Cc2cnc(N)nc2N)cc(OC)c1OC [Trimethoprim], the Bliss interaction score in the assay with S. aureus DSM 20231 worked out at 0.236. As for `O=C(O)[C@H]1/C(=C/CO)O[C@@H]2CC(=O)N21` [Clavulanic] + C/C(=C\C(=O)OCCCCCCCCC(=O)O)C[C@@H]1OC[C@H](C[C@@H]2O[C@H]2[C@@H](C)[C@H](C)O)[C@@H](O)[C@H]1O [Pseudomonic acid], the Bliss interaction score was -0.0513 with B. subtilis 168 and -0.0849 in the assay on S. pneumoniae D39V.
